# Laboratory results reported in a melting point compilation (Tetko et al.; mined from patent text by program, amines drawn as free bases though some values may be those of a salt).
row,SMILES,melting point
1,CC(=O)NC[C@H]1CN(c2ccc(C(=O)c3cnc4ccc(Cl)nn34)cc2)C(=O)O1,194 to 196 °C
2,CSCC(O)C1(Sc2ccccc2)C(=O)N2C1CCOC2(C)C (centres undefined),83 to 85 °C
3,CCCCNc1cccc2c1C(=O)c1cccc(NCCCC)c1C2=O,152 to 153 °C
4,CCN(CC)C(=O)Cc1c(-c2ccc(O)cc2)nn2c(C)cc(C)nc12,242 to 247 °C
5,CC1(C)CC(c2ccc(Cl)cc2)=C(c2ccc(S(N)(=O)=O)cc2)C1,144 to 145 °C
6,C=CCNC(=O)N1CC(Sc2ccc(Cl)cc2)C1,88 to 89 °C
7,C#Cc1ccc(CO[C@@H]2COc3nc([N+](=O)[O-])cn3C2)cn1,168 to 170 °C
8,O[C@H](CN[C@H]1CCCc2ccccc21)COc1cccc2ccccc12,107 to 109 °C
9,CCCc1c(OCC(O)COc2ccc3c(=O)cc(C(=O)O)sc3c2CCC)ccc(C(C)=O)c1O (centres undefined),280 to 281 °C
10,COc1cc(C(F)(F)F)cc(OC)c1-c1csc(NC(=O)c2cc3ccccc3n2CC(=O)OC(C)(C)C)n1,214 to 216 °C
11,CCOC(=O)c1nc(-c2ccncc2)[nH]c1-c1ccc(C)cc1,182 to 185 °C
12,OC1(CN2c3ccccc3Sc3ccccc32)CN2CCC1CC2 (centres undefined),127 to 130 °C
13,CCC(C)n1nc(C)n(-c2ccc(N3CCCN(c4ccc(C(=O)OC)cc4)CC3)cc2)c1=O (centres undefined),152 to 153 °C
14,COc1ccc(Cn2cnc3c(-c4ccco4)nc(C(F)(F)F)nc32)cc1,149 to 150 °C
15,COc1cc(-c2cnc3[nH]cc(C(=O)NCC(C)O)c3n2)cc(OC)c1OC (centres undefined),202 to 203 °C
16,COc1ccc(NC(=O)c2ccc(F)c(F)c2)cc1NC(=S)Nc1ccc(C(=O)O)cc1,200 to 203 °C
17,CCOC(=O)Cn1c(=O)n(Cc2ccc(Cl)c(Cl)c2)c(=O)c2ccccc21,121 to 122 °C
18,O=C(c1ccc(F)cn1)N1CCC[C@H](c2noc(-c3ccc(F)cc3)n2)C1,93 to 95 °C
19,Cc1nc(-c2cc(-n3c(=O)cc(C(F)(F)F)n(C)c3=O)ccc2Cl)sc1C,200 °C
20,O=Cc1ccccc1OCC(=O)NCCO[N+](=O)[O-],99 to 101 °C
21,C#CCOc1cc(NNC(=S)C(C)(C)C)c(Cl)cc1Cl,126 to 128 °C
22,Cc1cc(C)nc(NC(=O)c2ccncc2)c1,142 °C
23,CCCCCCCCCCC(O)CNCCCCCCNCC(O)CCCCCCCCCC (centres undefined),124 to 128 °C
24,CNc1cc(Br)cc(Sc2ccc([N+](=O)[O-])cc2)c1,96 to 98 °C
25,NC1(C(=O)c2ccccc2)CCSC1 (centres undefined),147 to 149 °C
26,COc1ccc(Cc2ccc(C(=O)O)cc2)cc1,152 to 153 °C

row,SMILES,melting point
1,CCOC(=O)c1ncn(-c2nccs2)c1N,120 to 123 °C
2,CC(C)Oc1nsc(NC(=O)C(C)C)c1C#N,224 °C
3,NC1N=C(c2ccccc2)c2ccccc2NC1=O (centres undefined),196 to 197 °C
4,O=C(NCc1ccccn1)Nc1cc(N2CC(c3cccs3)OC2=O)ccn1 (centres undefined),187 to 188 °C
5,COc1nnc(SCC2=C(C(=O)O)N3C(=O)C(NC(=O)Cc4csc(=O)s4)C3SC2)s1 (centres undefined),208 °C
6,C#CCn1c(-c2ccccc2)nc(C(F)(F)F)c(CC)c1=O,111 to 114 °C
7,CSc1ccc(N)c([N+](=O)[O-])c1,72 to 73 °C
8,O=C(O)c1ccc(I)nc1,177 to 179 °C
9,CC=CC(Oc1nc(OC)cc(OC)n1)C(C)(C)C#N (centres undefined),91 to 92 °C
10,CC(=O)Nc1cnc2cccc(Oc3cc(-c4ccc(C(F)(F)F)cc4)ncn3)c2n1,237 °C
11,COc1ncccc1-c1ccc(Cl)c(OC2SCC(O)C(O)C2O)c1 (centres undefined),119 °C
12,O=C(O)c1ccc(NCCCCCCCc2ccccc2)cc1,123 to 126 °C
13,O=S(=O)(Nc1ccc(N2CCN3CCC2CC3)cc1)c1ccccc1,267 °C
14,O=C(O)c1ccc2c(CCNCc3cccc(OCC(F)(F)F)c3)c[nH]c2c1,232 to 235 °C
15,Cc1ccc([N+](=O)[O-])cc1NC(N)=S,164 to 166 °C
16,O=C(O)Cn1cc(Cc2nc3c(F)c(F)cc(F)c3s2)c2ccc(-c3ccccc3)cc21,156 to 159 °C
17,O=C(NCCn1cncn1)c1ccco1,131 to 133 °C
18,c1cnc2ccc(Cn3nnc4ccc(-c5cn[nH]c5)nc43)cc2c1,215 to 218 °C
19,COC(=O)c1nc(-c2ccc(Cl)c(OC)c2F)nc(N)c1C#C[Si](C)(C)C,126 to 128 °C
20,FC(F)(F)c1cccc(-c2ccn3ncnc3n2)c1,201 to 202 °C
21,N#Cc1ncn2c(-c3cccc(C(F)(F)F)c3)ccnc12,168 to 169 °C
22,CCOC(=O)c1c(CC(C)C)nc2c(C(F)(F)F)cccc2c1O,100 °C
23,Cc1oc(-c2ccccc2)nc1CCc1nc(CCl)co1,71 to 72 °C
24,CN1CCN(c2ccc(NC(=O)c3cc4ccccc4s3)cc2C#N)CC1,263 to 264 °C
25,CCOC(=NC(=O)NC)N1Cc2ccccc2-c2ccccc2C1,137 to 139 °C
26,CCN(C(C)=O)c1cccc(-c2ccnc3c(C(=O)c4ccccc4)cnn23)c1,158 to 160 °C

row,SMILES,melting point
1,COc1ccc(C(O)C(C)N)cc1OC (centres undefined),131 to 132 °C
2,CCN(CC)CC1CCCCN1CC(=O)N1c2ccccc2NC(=O)c2csc(C)c21 (centres undefined),147 to 149 °C
3,Cc1nnc(-c2ccc3occ(-c4ccc(S(C)(=O)=O)c(OC(F)(F)F)c4)c3c2)o1,218 to 219 °C
4,O=C(NCCCc1ccccc1)c1ccccc1NCc1ccncc1,117 °C
5,COc1ccc(N2CCN(c3cccnn3)CC2)cc1,133 °C
6,Cc1cc(C)cc(COCC(NC(=O)c2ccccc2)C(c2ccccc2)c2ccccc2)c1 (centres undefined),128 to 129 °C
7,CC(C)c1cc2cc(OCC(=O)O)c(Cl)c(Cl)c2s1,168 to 170 °C
8,CCCc1c2c(cc3c1OC(O)(C(=O)OCC)CC3=O)CCCC2 (centres undefined),126 to 128 °C
9,COc1nc(C)cnc1NS(=O)(=O)c1cccnc1-c1ccc(OCC(C)(C)O)cc1,156 to 157 °C
10,CN(C)Cc1ccccc1-c1ccc(C(=O)N2Cc3ccc(C(=O)NCc4cccnc4)n3Cc3ccccc32)cc1,95 to 104 °C
11,CCN(CC)Cc1ccc2c(c1)ncn2-c1cccc(-c2nccs2)c1,152 °C
12,COC(=O)c1sccc1S(=O)(=O)NC(=O)Nc1nc(OC)c2cc(C)oc2n1,194 to 196 °C
13,CCCC1CCC(C2CCc3c(c(F)c(F)c4cc(OCC)ccc34)O2)CC1 (centres undefined),158 °C
14,CC(C)/C=C(\C[C@H](N)C(=O)O)C(=O)O,> 200 °C
15,Cc1cccc(C(=O)C=CN(C)C)n1,97 to 98 °C
16,Cn1nc(O)c(Cl)c1Cl,212 to 216 °C
17,CCOC(=O)C1=C(C)NC(C)=C(C(=O)OCCOC)C1c1cccc([N+](=O)[O-])c1 (centres undefined),108 °C
18,O=Cc1cc2c(cc1O)OCCO2,114 to 115 °C
19,CSc1nc(-c2ccc(S(C)(=O)=O)cc2)n(-c2ccc(C)cc2)c(=O)c1C#N,242 to 244 °C
20,Cc1cc(CCc2ccc(-c3ccc(C(F)(F)F)cc3)cc2)ccc1OCC(=O)O,174 to 176 °C
21,COc1cc2ccccc2cc1N(C)C(=O)N1CCN(c2cc(C)cc(C)c2)CC1,134 to 136 °C
22,COc1ccc(N2C(=O)C(=C3CCCN3C)c3ccccc32)cc1F,68 to 71 °C
23,CCN(CCSCc1[nH]cnc1C)C(=N)NC#N,118 to 120 °C
24,COc1ccc(OC)c2c(Cl)c(C#N)cnc12,165 to 167 °C
25,CN(C)C=CC(=O)CC(C)(C)C,72 to 74 °C
26,COc1ccc([N+](=O)[O-])cc1C=O,89 to 90 °C

row,SMILES,melting point
1,Nc1ncc2ncn(OC(CO)CCO)c2n1 (centres undefined),178 to 179 °C
2,CCN(CC)CCOc1ccc2[nH]c3c([N+](=O)[O-])ccc(Cl)c3c(=O)c2c1,148 to 151 °C
3,OC1c2ccccc2CSc2ccc(Br)cc21 (centres undefined),169 to 170 °C
4,CN(CCOc1cccc(Cl)c1CN)Cc1ccccc1,85 °C
5,O=[N+]([O-])c1ccc(Oc2ccc(Oc3ccc([N+](=O)[O-])c(O)c3)cc2)cc1O,242 to 245 °C
6,CC(=O)c1c(C)[nH]c(CCN)c1C,106 to 108 °C
7,O=C(NC(Cc1ccc(OCc2ccccc2)cc1)C(=O)O)c1cn2cc(-c3cccnc3)ccc2n1 (centres undefined),244 °C
8,O=S(c1ccccc1)c1ccc(Cc2csc(Br)n2)cc1 (centres undefined),82 °C
9,CCNC(=O)c1sc(C)c(C)c1[Si](C)(C)C,77 to 80 °C
10,O=C(O)c1nc(C2CC2)nc(Cl)c1Cl,126 to 127 °C
11,Cc1ccc(S(=O)(=O)Oc2ccc(S(=O)(=O)CC(=O)C(C)C)cc2)cc1,156 to 157 °C
12,N#Cc1cc(C2=Nc3cc(O)c(-c4ccc(F)cc4)cc3NC(=O)C2)ccn1,164 °C
13,O=C(O)CCCCCCCCCSc1ccccc1O,58 to 59 °C
14,CC[C@H](NC(=O)OC(C)(C)C)c1nc2c(C(F)(F)F)cccc2c(=O)o1,136 to 138 °C
15,O=c1[nH]c2ccc(O)cc2c(=O)n1CCN1CCC(c2c[nH]c3ccccc23)CC1,258 °C
16,O=c1[nH]c2cc3[nH]c(=O)oc3cc2[nH]1,> 360 °C
17,Cc1cc(OC(F)(F)C(F)Cl)ccc1NC(=O)CCCC=C(F)F (centres undefined),59 to 60 °C
18,CCOC(=O)CCc1[nH]c2cccc3c2c1CC1C3CC(NC(=O)N(CC)CC)CN1C (centres undefined),160 to 161 °C
19,CCCCCCCN(CCCCCSc1nc(-c2ccccc2)c(-c2ccccc2)[nH]1)c1nc2ccccc2o1,58 to 60 °C
20,CC(C)=Cc1ccc(-c2ccc(CCCI)cc2)cc1,58 to 61 °C
21,COc1cc2ncnc(N3CCN(C(=O)Nc4cc(Cl)nc(Cl)c4)CC3)c2cc1OC,267 to 270 °C
22,O=C(C=Cc1cncnc1)CCCCc1ccc2c(n1)NCCC2,101 to 102 °C
23,Cc1ccc(-c2cn3cc(-c4cccc(CO)c4)ccc3n2)cc1,171 to 173 °C
24,c1ccc(N2CCN(Cc3coc4ccccc34)CC2)cc1,103 to 105 °C
25,Cn1nc(C(F)(F)F)cc1Oc1cc(Cl)c(Cl)cc1[N+](=O)[O-],99 to 100 °C
26,CCCCCCCC/C=C\c1ccccc1/C=C/C(C)=C/C=C/C(C)=C/C(=O)O,103 to 105 °C
